Data taken from ChEMBL document CHEMBL4354854, “DNA-Encoded Library Technology-Based Discovery, Lead Optimization, and Prodrug Strategy toward Structurally Unique Indoleamine 2,3-Dioxygenase-1 (IDO1) Inhibitors” (J Med Chem, 2020).
In brackets after ≈: the same amount, converted by molar mass. Activity calls are given as the source filed them. No cut-off for these calls is given here.

Legend:
[1] = Cytotoxicity against human PBMC cells assessed as reduction in cell viability measured after 48 hrs by Celltiter-glo luminescence assay; type: cell-based
[2] = Clearance in mouse; type: ADME, organism-based; details: in vivo
[3] = molecular target: T1, Indoleamine 2,3-dioxygenase 1 (Homo sapiens, UniProt P14902); assay: Binding affinity to IDO1 holoenzyme (unknown origin) assessed as red shift in soret band at 10 uM measured after 2 hrs by UV-vis spectra analysis
Target sequence in this assay (P14902 whole entry, looked up): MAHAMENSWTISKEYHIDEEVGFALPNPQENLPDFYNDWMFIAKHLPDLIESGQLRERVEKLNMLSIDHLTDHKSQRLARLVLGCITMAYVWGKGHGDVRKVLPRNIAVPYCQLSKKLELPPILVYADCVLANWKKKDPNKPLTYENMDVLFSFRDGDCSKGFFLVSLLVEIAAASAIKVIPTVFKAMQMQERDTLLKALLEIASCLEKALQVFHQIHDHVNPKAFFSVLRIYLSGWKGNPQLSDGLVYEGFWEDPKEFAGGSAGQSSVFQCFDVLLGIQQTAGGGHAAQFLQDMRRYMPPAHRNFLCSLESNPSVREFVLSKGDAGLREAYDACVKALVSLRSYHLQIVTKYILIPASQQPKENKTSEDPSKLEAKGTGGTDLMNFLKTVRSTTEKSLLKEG

[4] = Mutagenicity in Salmonella typhimurium in absence of S9 fraction by Ames test; type: toxicity; details: salmonella enterica subsp. enterica serovar typhimurium
[5] = Oral bioavailability in Beagle dog assessed as (S)-Ethyl 6-Bromo-4-(1H-indazole-7-carboxamido)spiro-[chroman-2,4'-piperidine]-1'-carboxylate level at 30 mg/kg equiv of parent compound administered via gavage using crystalline compound by LC-MS/MS analysis; type: ADME, organism-based, Canis lupus familiaris; details: in vivo
[6] = AUC (0 to t) in Beagle dog assessed as (S)-Ethyl 6-Bromo-4-(1H-indazole-7-carboxamido)spiro-[chroman-2,4'-piperidine]-1'-carboxylate level at 30 mg/kg equiv of parent compound administered via oral gavage using crystalline compound by LC-MS/MS analysis; type: ADME, organism-based, Canis lupus familiaris; details: in vivo
[7] = Oral bioavailability in CD-1 mouse assessed as (S)-Ethyl 6-Bromo-4-(1H-indazole-7-carboxamido)spiro-[chroman-2,4'-piperidine]-1'-carboxylate level at 3 mg/kg equiv of parent compound administered via gavage using crystalline compound by LC-MS/MS analysis; type: ADME, organism-based; details: in vivo
[8] = Oral bioavailability in CD-1 mouse assessed as (S)-Ethyl 6-Bromo-4-(1H-indazole-7-carboxamido)spiro-[chroman-2,4'-piperidine]-1'-carboxylate level at 267 mg/kg equiv of parent compound administered via gavage using crystalline compound by LC-MS/MS analysis; type: ADME, organism-based; details: in vivo
[9] = Mutagenicity in Salmonella typhimurium in presence of S9 fraction by Ames test; details: salmonella enterica subsp. enterica serovar typhimurium
[10] = Oral bioavailability in CD-1 mouse assessed as (S)-Ethyl 6-Bromo-4-(1H-indazole-7-carboxamido)spiro-[chroman-2,4'-piperidine]-1'-carboxylate level at 89 mg/kg equiv of parent compound administered via gavage using crystalline compound by LC-MS/MS analysis; type: ADME, organism-based; details: in vivo
[11] = Oral bioavailability in Beagle dog assessed as (S)-Ethyl 6-Bromo-4-(1H-indazole-7-carboxamido)spiro-[chroman-2,4'-piperidine]-1'-carboxylate level at 3 mg/kg equiv of parent compound administered via gavage using crystalline compound by LC-MS/MS analysis; type: ADME, organism-based, Canis lupus familiaris; details: in vivo
[12] = Oral bioavailability in CD-1 mouse assessed as (S)-Ethyl 6-Bromo-4-(1H-indazole-7-carboxamido)spiro-[chroman-2,4'-piperidine]-1'-carboxylate level at 30 mg/kg equiv of parent compound administered via gavage using crystalline compound by LC-MS/MS analysis; type: ADME, organism-based; details: in vivo
[13] = Solubility of the compound in fasted state simulated intestinal fluid using crystalline compound; type: physicochemical
[14] = Oral bioavailability in Beagle dog assessed as (S)-Ethyl 6-Bromo-4-(1H-indazole-7-carboxamido)spiro-[chroman-2,4'-piperidine]-1'-carboxylate level at 89 mg/kg equiv of parent compound administered via gavage using crystalline compound by LC-MS/MS analysis; type: ADME, organism-based, Canis lupus familiaris; details: in vivo
Homo sapiens = assay: In vivo inhibition of IDO1 in human at 60 mg, po bid measured after 24 hrs relative to control; type: functional
[15] = molecular target: T1, Indoleamine 2,3-dioxygenase 1
Target sequence in this assay (P14902 whole entry): as the sequence (P14902 whole entry, looked up) above
Description: Inhibition of IDO1 in IFN-gamma/LPS stimulated human PBMC assessed as reduction in kynurenine production after 48 hrs by RapidFire MS assay

[16] = Oral bioavailability in Han Wistar rat at 5 mg/kg administered via gavage using crystalline compound by LC-MS/MS analysis; type: ADME, organism-based; details: in vivo
[17] = Clearance in monkey; type: ADME, Macaca mulatta; details: rhesus monkey, in vivo
[18] = Clearance in rat relative to hepatic blood flow; type: ADME; details: in vivo
[19] = Oral bioavailability in Beagle dog at 5 mg/kg administered via gavage using crystalline compound by LC-MS/MS analysis; type: ADME, organism-based, Canis lupus familiaris; details: in vivo
[20] = AUC (0 to t) in Beagle dog at 30 mg/kg, po administered via gavage using crystalline compound by LC-MS/MS analysis; type: ADME, organism-based, Canis lupus familiaris; details: in vivo
[21] = Clearance in mouse relative to hepatic blood flow; type: ADME; details: in vivo
[22] = Oral bioavailability in Han Wistar rat at 100 mg/kg administered via gavage using crystalline compound by LC-MS/MS analysis; type: ADME, organism-based; details: in vivo
[23] = Clearance in rat; type: ADME; details: in vivo
[24] = Clearance in monkey relative to hepatic blood flow; type: ADME, Macaca mulatta; details: rhesus monkey, in vivo
[25] = Oral bioavailability in Beagle dog at 30 mg/kg administered via gavage using crystalline compound by LC-MS/MS analysis; type: ADME, organism-based, Canis lupus familiaris; details: in vivo
[26] = Oral bioavailability in Han Wistar rat at 30 mg/kg administered via gavage using crystalline compound by LC-MS/MS analysis; type: ADME, organism-based; details: in vivo
[27] = Oral bioavailability in Han Wistar rat assessed as (S)-Ethyl 6-Bromo-4-(1H-indazole-7-carboxamido)spiro-[chroman-2,4'-piperidine]-1'-carboxylate level at 4 mg/kg equiv of parent compound administered via gavage using amorphous compound by LC-MS/MS analysis; type: ADME, organism-based; details: in vivo
[28] = Oral bioavailability in Han Wistar rat assessed as (S)-Ethyl 6-Bromo-4-(1H-indazole-7-carboxamido)spiro-[chroman-2,4'-piperidine]-1'-carboxylate level at 82 mg/kg equiv of parent compound administered via gavage using amorphous compound by LC-MS/MS analysis; type: ADME, organism-based; details: in vivo
[29] = Oral bioavailability in Han Wistar rat assessed as (S)-Ethyl 6-Bromo-4-(1H-indazole-7-carboxamido)spiro-[chroman-2,4'-piperidine]-1'-carboxylate level at 25 mg/kg equiv of parent compound administered via gavage using amorphous compound by LC-MS/MS analysis; type: ADME, organism-based; details: in vivo
[30] = Solubility of the compound in fasted state simulated intestinal fluid using amorphous compound; type: physicochemical

For `CC(C)OC(=O)N1CCC2(CC1)C[C@H](NC(=O)c1cccc3cn[nH]c13)c1cc(Br)ccc1O2`, the CC50 at 48 h [1] was greater than 10 µM.
Work on `CC(C)(C)OC(=O)N1CCC2(CC1)CC(NC(=O)c1cccc3cc[nH]c13)c1ccccc1O2` (racemic) yielded a CC50 at 48 h [1] of 5.01 µM and a clearance [2] of 55 mL/min/kg.
For `CCOC(=O)N1CCC2(CC1)C[C@H](NC(=O)c1cccc3c1NC(=O)CO3)c1cc(Br)ccc1O2`, the CC50 at 48 h [1] was greater than 10 µM.
Work on `CCOC(=O)N1CCC2(CC1)C[C@H](NC(=O)c1cccc3c1OCO3)c1cc(Br)ccc1O2` yielded a CC50 at 48 h [1] greater than 10 µM.
`CCOC(=O)N1CCC2(CC1)C[C@H](NC(=O)c1cccc3cn[nH]c13)c1cc(C(=O)OC)ccc1O2` gave a CC50 at 48 h [1] greater than 10 µM.
Work on `CCOC(=O)N1CCC2(CC1)CC(NC(=O)c1cccc3cc[nH]c13)c1ccccc1O2` (racemic) yielded a CC50 at 48 h [1] greater than 10 µM.
`CCOC(=O)N1CCC2(CC1)C[C@H](NC(=O)c1cccc3cn[nH]c13)c1cc(C#N)ccc1O2` showed a CC50 at 48 h [1] greater than 10 µM.
For `CCCOC(=O)N1CCC2(CC1)C[C@H](NC(=O)c1cccc3cn[nH]c13)c1cc(Br)ccc1O2`, the CC50 at 48 h [1] was greater than 10 µM.
With `CC(C)(C)OC(=O)N1CCC2(CC1)C[C@H](NC(=O)c1cccc3cn[nH]c13)c1cc(Br)ccc1O2` the CC50 at 48 h [1] was greater than 10 µM.
Work on `CCOC(=O)N1CCC2(CC1)C[C@H](NC(=O)c1cccc3cc[nH]c13)c1cc(Br)ccc1O2` yielded a CC50 at 48 h [1] greater than 10 µM.
In the case of `CCOC(=O)N1CCC2(CC1)C[C@H](NC(=O)c1cccc3cn[nH]c13)c1ccccc1O2`, the CC50 at 48 h [1] is reported as greater than 10 µM.
Work on `CCOC(=O)N1CCC2(CC1)C[C@H](NC(=O)c1cccc3nc[nH]c13)c1cc(Br)ccc1O2` yielded a CC50 at 48 h [1] greater than 10 µM.
With `CCOC(=O)N1CCC2(CC1)C[C@H](NC(=O)c1ccccc1O)c1cc(Br)ccc1O2` the CC50 at 48 h [1] was greater than 10 µM.
In the case of `NS(=O)(=O)NCCNc1nonc1/C(=N/O)Nc1ccc(F)c(Br)c1`, the Activity [3] is reported as “inactive”.
With `CCOC(=O)N1CCC2(CC1)C[C@H](NC(=O)c1cccc3cn(COP(=O)(O)O)nc13)c1cc(Br)ccc1O2.NC(CO)(CO)CO.NC(CO)(CO)CO` the Activity [4] was “Non-Toxic”, the F [5] was 32% and the AUCt [6] was 8606 ng·h/mL. The F [7] was 33%, the F [8] was 45% and the Activity [9] was “Non-Toxic”. It also gave an F [10] of 31%, an F [11] of 37% and an F [12] of 24%. The solubility thermodynamic [13] was greater than 1000 µg/mL, the F [14] was 21% and the “inhibition (INH)” value (Homo sapiens) was 90%.
Work on `COC(=O)N1CCC2(CC1)C[C@H](NC(=O)c1cccc3cn[nH]c13)c1cc(Br)ccc1O2` yielded a CC50 at 48 h [1] of 6.31 µM and an IC50 [15] of 0.0043 µM.
Work on `CCOC(=O)N1CCC2(CC1)C[C@H](NC(=O)c1cccc3cn[nH]c13)c1cc(Br)ncc1O2` yielded a CC50 at 48 h [1] greater than 10 µM and an IC50 [15] of 0.021 µM.
`CCOC(=O)N1CCC2(CC1)C[C@H](NC(=O)c1cccc3[nH]ncc13)c1cc(Br)ccc1O2` gave a CC50 at 48 h [1] greater than 10 µM.
In the case of `CCOC(=O)N1CCC2(CC1)C[C@H](NC(=O)c1cccc3ocnc13)c1cc(Br)ccc1O2`, the CC50 at 48 h [1] is reported as greater than 10 µM.
Molecule `CCOC(=O)N1CCC2(CC1)C[C@H](NC(=O)c1cccc3cn[nH]c13)c1cc(Br)ccc1O2` has a bioavailability [16] of 11%, a clearance [17] of 6.1 mL/min/kg and a CC50 at 48 h [1] greater than 10 µM. The CL [18] was 15%, the bioavailability [19] was 7% and the AUC(0-t) [20] was 44.7 ng·h/mL. It also gave a CL [21] of 8%, a bioavailability [22] of 3% and a solubility thermodynamic [13] of 18.4 µg/mL (≈ 35.8 µM). For the same molecule, the clearance [23] was 11.7 mL/min/kg, the CL [24] was 14% and the clearance [2] was 10 mL/min/kg. For the same molecule, the bioavailability [25] was 0.2% and the bioavailability [26] was 6%.
`CCOC(=O)N1CCC2(CC1)C[C@H](NC(=O)c1cccc3cn[nH]c13)c1cc(C(=O)O)ccc1O2` showed a CC50 at 48 h [1] greater than 10 µM.
`CCOC(=O)N1CCC2(CC1)C[C@H](NC(=O)c1cccc3cn(COP(=O)(O)O)nc13)c1cc(Br)ccc1O2` gave an F [27] of 65%, an F [28] of 91% and an F [29] of 95%. The solubility [30] was greater than 1000 µg/mL.
With `CCOC(=O)N1CCC2(CC1)CC(NC(=O)c1cccc3cn[nH]c13)c1ccccc1O2` (racemic) the CC50 at 48 h [1] was greater than 10 µM.
For `CCOC(=O)N1CCC2(CC1)C[C@H](NC(=O)c1cccc3cn[nH]c13)c1nc(OC)ccc1O2`, the CC50 at 48 h [1] was greater than 10 µM and the IC50 [15] was 0.0064 µM.
Molecule `CCOC(=O)N1CCC2(CC1)C[C@H](NC(=O)c1cccc3c1NC(=O)C3)c1cc(Br)ccc1O2` has a CC50 at 48 h [1] greater than 10 µM.
`CCOC(=O)N1CCC2(CC1)C[C@H](NC(=O)c1cccc3cn[nH]c13)c1cc(OC)ccc1O2` showed a CC50 at 48 h [1] greater than 10 µM.
Molecule `CCOC(=O)N1CCC2(CC1)C[C@H](NC(=O)c1cccc3[nH]c(=O)[nH]c13)c1cc(Br)ccc1O2` has a CC50 at 48 h [1] greater than 10 µM.
`CCOC(=O)N1CCC2(CC1)C[C@H](NC(=O)c1cccc3c1NC(=O)C3=O)c1cc(Br)ccc1O2` showed a CC50 at 48 h [1] greater than 10 µM.
For `CC(C)CN(CC(C)C)c1ccc([C@H](C)CC(=O)O)cc1Nc1nc(C(F)(F)F)ns1`, the Activity [3] was “inactive”.
`CCOC(=O)N1CCC2(CC1)C[C@H](NC(=O)c1ccccc1OC)c1cc(Br)ccc1O2` gave a CC50 at 48 h [1] greater than 10 µM.
For `CCOC(=O)N1CCC2(CC1)C[C@@H](NC(=O)c1cccc3cn[nH]c13)c1ccccc1O2`, the CC50 at 48 h [1] was greater than 10 µM.
For `CCOC(=O)N1CCC2(CC1)C[C@H](NC(=O)c1cccc3nn[nH]c13)c1cc(Br)ccc1O2`, the CC50 at 48 h [1] was greater than 10 µM.
Work on `CCOC(=O)N1CCC2(CC1)C[C@H](NC(=O)c1ccccc1NC(=O)C(F)(F)F)c1cc(Br)ccc1O2` yielded a CC50 at 48 h [1] greater than 10 µM.
In the case of `CCOC(=O)N1CCC2(CC1)C[C@H](NC(=O)c1cccc3cn[nH]c13)c1cc(CC)ccc1O2`, the CC50 at 48 h [1] is reported as greater than 10 µM.
